The source of these data is patent publication US20110124614A1, “Methods And Compositions For The Treatment of Autoimmune Disorders” (priority 2008, published 2011).

Data set [1] has as its system PD-1 expression in CD4^+FoxP3^+ T cells. In words: PD-1 expression in CD4+FoxP3+ Treg cells by flow cytometry, WT mice (Example VI). It is filed as in vivo, mouse. The conditions noted are these: for staining intensity of PD-1 in CD4^+FoxP3^+ cells: spleen of treated WT mice; for staining intensity of PD-1 in CD4^+FoxP3^+ cells / conversion of CD4^+FoxP3^+PD-1^− cells to PD-1^+ cells: FIG. 5B. How it is done: Splenocytes or lymph node cells were harvested from placebo-, E2- or G-1 treated mice after EAE induction as shown in FIG. 2A and stained for CD4, FoxP3 and PD-1. The expression levels of Pd-1 were analyzed by gating on CD4^+FoxP3^+ cells from placebo-, E2, or G-1 treated WT mice. For membrane staining, 1 million cells were stained at 4° C. in the dark with appropriate Ab dilutions in staining buffer (PBS containing 0.5% BSA and 0.02% sodium azide), Intracellular staining for FoxP3 was performed following the protocol recommended by eBioscience. Briefly, 4 million cells were surface stained following standard procedures. After washing, the cells were fixed overnight and washed twice with 0.5 ml of permeabilization buffer. The cells were co-stained for 15 min with FcBlock (Becton Dickinson, Franklin Lake., NJ) and IgG PerCp (eBioscience, San Diego, Calif.) followed 30 min later with fluorescent-labeled antibodies to FoxP3 (eBioscience, San Diego, Calif.) or isotype control. The cells were then washed twice with 2 ml of permeabilization buffer and once with 1 ml of staining buffer, and re-suspended in staining buffer. Flow cytometry data were collected on LSRII and FACSCalibur flow cytometers (BD Bioscience, Franklin Lakes, N.J.), and analyzed using FlowJo software (Tree Star, Ashland, Oreg.). Data represent 50,000-100,000 events unless otherwise noted. […] The histogram overlay compares the MFI of PD-1 in CD4^+FoxP3^+ T cells from different treatment groups. The bar charts show the average percentages of PD-1^+ CD4^+FoxP3^+ T cells and the average MFI of PD-1 in CD4^+FoxP3^+ T cells from all mice in each grip[/*P<0.05 or **P<0.01 compared to placebo control.
For orientation: In flow cytometry, cells or beads pass a laser one at a time.

For data set [2], the system named is cytokine secretion by splenocytes of PD-1KO immunized mice. In words: Cytokine secretion of mMog-35-55 stimulated splenocytes, Luminex, PD-1KO mice. It is filed as in vivo, mouse. The conditions noted are these: G-1 treated PD-1KO mice. How it is done: PD-1KO (Dr. […] One week after implantation experimental autoimmune encephalomyelitis (EAE) was induced. Splenocytes were harvested from […] cell proliferation and cytokine secretion in 48 h supernatants. (*P<0.05, or **P<0.01 compared to placebo). Lymph node and spleen cells were cultured at 4×10^6 cells/well in a 24 well flat-bottom culture plate in stimulation medium (RPMI 1640, 1% sodium pyruvate, 1% L-glutamine, 0.4% 2-β-ME, 10% FBS) with 25 μg/ml mMog-35-55 peptide for 48H. Supernatants were then harvested and stored at -80° C. until tested for cytokines. Culture supernatants were assessed for cytokine levels using a Luminex Bio-Plex mouse cytokine assay kit (BioRad, Hercules, Calif.) following the manufacturer's instructions. The following cytokines were determined in a single assay in three separate experiments: IL-1βIFN-γ, TNF-α, IL-2, IL-4, IL-5. IL-6, IL-12, IL-13, and IL-17. […] This cytokine profile was drastically altered in G-1 treated PD-1Ko mice. The decrease of Il-17 and increase of Il-6, Il-10 and IFN-γ production were abolished, whereas the reduction in IL-2 and Il-4 remained. Thus PD-1 was required for […] downregulation of IL-17 but not Il-2 and Il-4, and upregulation of IL-6, Il10 and IFN-γ.

Data set [3] has as its system uteri. In words: Uterine weight (estrogenic effect). The note with it: G-1 treatment in vivo, FIG. 2E. Details: species or system mouse. From the text: Treatment with G-1 in viva lacked the “estrogenic effects” of E2.
Data set [4] relates to experimental autoimmune encephalomyelitis (EAE) in WT C57BL/6 female mice. In words: EAE clinical scoring, E2 pellets, WT mice (Example II). It is filed as in vivo, mouse.
For data set [5], the system named is PD-1 expression in CD4^+FoxP3^+ or CD4^+FoxP3^− T cells. In words: PD-1 expression in CD4+FoxP3+/FoxP3- T cells by flow cytometry, E2-treated WT vs knockout mice (Example V). It is filed as in vivo, mouse. The method, then: Age matched WT C57BL/6 from the animal service at National Cancer Institute (Frederick, Md.), GPR30KO prepared as in Example 1, or PDD-KO mice (Dr. […] Splenocytes or lymph node cells from GPR30KO mice were obtained at the end of the clinical experiment in FIG. 1A and stained for FoxP3 and PD-1, as well as cellular markers for T cells and antigen presenting cells (APC). For membrane staining, 1 million cells were stained at 4° C. in the dark with appropriate Ab dilutions in staining buffer (PBS containing 0.5% BSA and 0.02% sodium azide), Intracellular staining for FoxP3 was performed following the protocol recommended by eBioscience (San Diego, Calif.). Briefly, 4 million cells were surface stained following standard procedures. After washing, the cells were fixed overnight and washed twice with 0.5 ml of permeabilization buffer. […] Flow cytometry data were collected on LSRII and FACSCalibur flow cytometers (BD Bioscience, Franklin Lakes, N.J.), and analyzed using FlowJo software (Tree Star, Ashland, Oreg.). […] The expression levels of PD-1 were analyzed by gating on CD4^+FoxP3^+ or CD4^+FoxP3^− T cells from WT or GPR30 mice. The bar charts in FIG. 5A show the average mean fluorescence intensity (MFI) of Pd-1 in CD4^+FoxP3^+ or CD4^+FoxP3^− from all mice in each group. […]

[6] abbreviates: WT, 2.5 mg/60 day release E2 pellet, 25 days.

The structures appear in SMILES notation. Marks after values point to notes of the source that are not given here.

In the case of `CC(=O)c1ccc2c(c1)C1C=CCC1C(c1cc3c(cc1Br)OCO3)N2` (centres unmarked) [G-1], in data set [1], the “staining intensity of PD-1 in CD4^+FoxP3^+ cells” value is “strongly enhanced”. In data set [1] (treated WT mice), the “boosting PD-1 expression in CD4^+FoxP3^+ cells, compared with E2” value is listed as “even more potent than E2” and the “conversion of CD4^+FoxP3^+PD-1^− cells to PD-1^+ cells” value is “converted a majority”. In addition, in data set [2], the “decrease of Il-17 production” value is listed as “abolished”, the “increase of IFN-γ production” value is recorded as “abolished”, the “increase of Il-6 production” value is “abolished” and the “increase of Il-10 production” value is given as “abolished”. In data set [2], the “reduction in IL-2” value is “remained” and the “reduction in Il-4” value is “remained”. Also, the weight of uteri result in data set [3] is “did not significantly change”.

As for `C[C@]12CC[C@@H]3c4ccc(O)cc4CC[C@H]3[C@@H]1CC[C@@H]2O` [E2, 17β estradiol], the “staining intensity of PD-1 in CD4^+FoxP3^+ cells” value in data set [1] is listed as “strongly enhanced”. In data set [1] (treated WT mice), the “conversion of CD4^+FoxP3^+PD-1^− cells to PD-1^+ cells” value was “converted a majority”. For the same compound, the “clinical EAE (in words)” value in data set [4] (E2-treated WT mice, 2.5 mg/60 day pellet) is listed as “no sign of the disease”. For the same compound, the Incidence in data set [4] (WT, 2.5 mg/60 day release E2 pellet one week before immunization, concluded 25 days after immunization) is listed as 0/10. Further, in data set [4] (setting [6]), the CDI is reported as 0**, the Daily is 0** and the Mortality is 0/10. Further, in data set [4] (WT, 2.5 mg/60 day release E2 pellet, 25 days, EAE score scale 0-6), the Peak is reported as 0**. Moreover, the “PD-1 expression in non-regulatory CD4^+FoxP3^− T cells” value in data set [5] (WT or PD-1KO mice (so in the source)) is on record as “did not induce a significant shift”. Further, in data set [5] (splenocytes from PD-1KO mice (so in the source), FIG. 5A), the “E2 induced upregulation of PD-1 expression in CD4+FoxP3+ cells” value is recorded as “abolished”.
